According to US10214544B2, “Imidazopyridazine and imidazothiadiazole compounds” (Universite de Montreal, priority 2015, dated 2019):
No end group written: not given here.

Molecular target: PAR1 (Homo sapiens (Human), UniProt P25116)
Test: FLIPR assay, PAR1 agonist peptide response in PAR1/PAR4-expressing HEK293 cells
Format: cell-based
Settings: routine test of agonist response, FLIPR assay of Example A
Description: HEK293 cells stably expressing PAR4 were generated by a standard method of transfection of human PAR4 (F2R23) cDNA expression vector and selected based on PAR4 protein expression or mRNA expression. […] These cells also express endogenous PAR1 and can elicit calcium signal upon stimulation with PAR1 agonist peptide. Therefore, the same cells were also used to determine selectivity against PAR1 and agonist activity for both receptors. Cells from HEK293 PAR4 Clone 1.2A (BMS Arctic ID 383940) were propagated and used for calcium mobilization studies.
FLIPR-based calcium mobilization assay in HEK293 cells was used to measure PAR4 antagonism, agonism, and selectivity against PAR1. The activity of the PAR4 antagonists of the present invention were tested in PAR4 expressing cells by monitoring H-Ala-Phe(4-F)-[…]NH2-induced intracellular calcium mobilization. Counter screens for agonist activity and PAR1 antagonist activity were also performed. Briefly, PAR1/PAR4-expressing HEK293 cells were grown in DMEM (Life Technology, Grand Island, N.Y.) containing 10% heat-inactivated FBS, 1% Penicillin-Streptomycin, 10 μg/mL blasticidin, and 100 μg/mL Zeocin at 37° C. with 5% CO2. […] Changes in fluorescence intensity were measured using a Functional Drug Screening System (FDSS, Hamamatsu, Japan) to determine agonist activities. […]

Chain of PAR1 (P25116 22-425): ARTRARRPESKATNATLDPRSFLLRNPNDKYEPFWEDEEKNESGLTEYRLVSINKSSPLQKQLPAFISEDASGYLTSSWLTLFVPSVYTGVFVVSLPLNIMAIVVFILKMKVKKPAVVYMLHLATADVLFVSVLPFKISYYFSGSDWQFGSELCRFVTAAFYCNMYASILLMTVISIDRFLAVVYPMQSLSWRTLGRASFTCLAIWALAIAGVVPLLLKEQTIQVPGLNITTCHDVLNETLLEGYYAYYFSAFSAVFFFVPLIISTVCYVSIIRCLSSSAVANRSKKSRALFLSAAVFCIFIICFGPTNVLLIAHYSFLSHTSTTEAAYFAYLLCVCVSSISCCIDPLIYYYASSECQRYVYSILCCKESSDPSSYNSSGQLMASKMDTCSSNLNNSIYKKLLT

SFFLRR [SFFLRR] gave an EC50 of roughly 2000 nM.
